Common to all, as to format: biochemical
In experiment [1] the target is T1, HDAC3 (Homo sapiens, UniProt O15379).
T1 construct: purchased Enzo Life Sciences
Kind of experiment: HDAC Inhibition Screening Assay (FLUOR DE LYS Fluorimetric Drug Discovery Kit), HDAC3. The note with it: for inhibition at 2 µM: 2 μM compound; for inhibition at 10 µM: 10 μM compound; for inhibition at 50 µM: 50 μM compound. How it is done:
(§1) The HDAC1/HDAC2/HDAC3 in vitro activities are detected by Enzo Life Sciences' HDAC1/HDAC2/HDAC3 Fluorimetric Drug Discovery Kit. The assay is based on the FLUOR DE LYS® Substrate and FLUOR DE LYS® Developer combination. The assay procedure has two steps. First, the FLUOR DE LYS® Substrate, which comprises an acetylated lysine side chain, is incubated with HDAC1/HDAC2/HDAC3, respectively. Deacetylation of the substrate sensitizes the substrate so that, in the second step, treatment with the FLUOR DE LYS® Developer produces a fluorophore. The signals of the test compounds (Compounds 1˜83; at concentrations of 2 μM, 10 μM and 50 μM) in 96-well plates are detected at 360 nm or 485 nm excitation and 460 nm or 530 nm emission with a Molecular Devices SpectraMax i3 Imaging Cytometer. The HDAC1/HDAC2/HDAC3 activities are expressed in percentage of basal control minus baseline control.

Experiment [2] concerns the target T2, HDAC2 (Homo sapiens, UniProt Q92769).
T2 construct: purchased Enzo Life Sciences
The experiment in a line: HDAC Inhibition Screening Assay (FLUOR DE LYS Fluorimetric Drug Discovery Kit), HDAC2. The note with it: for inhibition at 2 µM: 2 μM compound; for inhibition at 10 µM: 10 μM compound; for inhibition at 50 µM: 50 μM compound. Here is the method: as §1

In experiment [3] the target is T3, ATX (autotaxin) (Homo sapiens, UniProt Q13822).
T3 construct: purchased Cayman 10803
Kind of experiment: Autotaxin Inhibition Screening Assay (choline release from LPC, LPC-CR). The conditions noted are these: for inhibition at 4 µM: 4 μM compound; for inhibition at 20 µM: 20 μM compound; for inhibition at 50 µM: 50 μM compound. How it is done:
ATX (autotaxin) activity was measured by choline release from LPC in presence or absence of test compounds (Compounds 1˜83; at concentrations of 4 μM, 20 μM and 50 μM). Twenty (20) ng ATX (10803, Cayman, MI, USA) was incubated with 100 μM 14:0 LPC (855575P, Avanti, AL, USA) in a final volume of 100 μL buffer containing 50 mM Tris pH 8.0, 0.01% Triton X-100, 50 mM CaCl2, 1 unit/ml choline oxidase, 2 unit/ml horseradish peroxidase (HRP), 2 mM homovanilic acid (HVA). The relative amount of released choline was measured by HVA fluorescence in a 96-well plate. Fluorescent intensity was determined at λex/λem=320/450 nm every 60 sec for 90 min with a SpectraMax i3 (Molecular Devices, CA, USA). Data analysis was performed using GraphPad Prism (GraphPad, La Jolla CA, USA). Inhibition %=[1−(SlopeTA−SlopeBlank)/(SlopeVehicle−SlopeBlank)]×100% HDAC Inhibition Screening Assay

For experiment [4], the target named is T4, HDAC1 (Homo sapiens, UniProt Q13547).
T4 construct: purchased Enzo Life Sciences
T4 sequence (Q13547 whole entry): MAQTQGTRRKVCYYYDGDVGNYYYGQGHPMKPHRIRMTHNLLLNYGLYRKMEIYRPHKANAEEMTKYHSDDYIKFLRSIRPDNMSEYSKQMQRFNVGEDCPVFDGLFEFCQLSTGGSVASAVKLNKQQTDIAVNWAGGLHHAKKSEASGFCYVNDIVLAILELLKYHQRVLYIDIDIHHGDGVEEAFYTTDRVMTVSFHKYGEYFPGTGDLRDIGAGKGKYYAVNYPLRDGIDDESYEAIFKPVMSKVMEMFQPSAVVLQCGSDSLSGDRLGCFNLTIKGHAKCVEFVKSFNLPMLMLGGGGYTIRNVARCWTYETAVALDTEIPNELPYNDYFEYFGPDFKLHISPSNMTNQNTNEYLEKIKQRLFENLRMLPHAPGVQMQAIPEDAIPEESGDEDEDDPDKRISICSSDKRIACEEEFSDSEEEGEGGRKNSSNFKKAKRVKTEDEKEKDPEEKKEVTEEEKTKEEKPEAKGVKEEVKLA
Kind of experiment: HDAC Inhibition Screening Assay (FLUOR DE LYS Fluorimetric Drug Discovery Kit), HDAC1. The note with it: for inhibition at 2 µM: 2 μM compound; for inhibition at 10 µM: 10 μM compound; for inhibition at 50 µM: 50 μM compound. How it is done:
as §1

T2 sequence (Q92769 whole entry): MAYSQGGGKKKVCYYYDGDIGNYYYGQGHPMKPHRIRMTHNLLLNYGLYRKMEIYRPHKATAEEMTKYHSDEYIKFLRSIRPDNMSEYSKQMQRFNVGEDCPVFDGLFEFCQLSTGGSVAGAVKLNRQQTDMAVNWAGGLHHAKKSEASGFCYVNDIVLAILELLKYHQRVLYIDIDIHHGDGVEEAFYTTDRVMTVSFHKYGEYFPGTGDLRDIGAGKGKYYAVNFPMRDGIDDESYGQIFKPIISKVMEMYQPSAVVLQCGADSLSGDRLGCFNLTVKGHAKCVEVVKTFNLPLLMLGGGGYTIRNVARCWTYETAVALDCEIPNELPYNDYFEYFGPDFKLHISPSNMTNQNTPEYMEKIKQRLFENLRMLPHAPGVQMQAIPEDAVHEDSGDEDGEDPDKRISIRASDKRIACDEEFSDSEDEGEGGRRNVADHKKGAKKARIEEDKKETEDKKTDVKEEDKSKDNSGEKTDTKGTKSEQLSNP
T1 sequence (O15379 whole entry): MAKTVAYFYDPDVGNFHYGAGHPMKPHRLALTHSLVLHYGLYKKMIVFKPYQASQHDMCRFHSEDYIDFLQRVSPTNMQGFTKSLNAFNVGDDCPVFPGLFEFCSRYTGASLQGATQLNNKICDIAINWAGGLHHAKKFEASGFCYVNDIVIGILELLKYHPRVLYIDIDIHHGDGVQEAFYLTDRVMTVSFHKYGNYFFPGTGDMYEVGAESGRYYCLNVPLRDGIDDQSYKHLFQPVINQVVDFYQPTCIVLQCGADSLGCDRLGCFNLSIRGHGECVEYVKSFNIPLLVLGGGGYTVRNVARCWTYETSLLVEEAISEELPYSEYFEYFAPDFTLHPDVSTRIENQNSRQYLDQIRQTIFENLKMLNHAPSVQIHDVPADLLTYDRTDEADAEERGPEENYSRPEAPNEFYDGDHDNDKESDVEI
T1 sequence (O75376 395-489 partner limits assumed): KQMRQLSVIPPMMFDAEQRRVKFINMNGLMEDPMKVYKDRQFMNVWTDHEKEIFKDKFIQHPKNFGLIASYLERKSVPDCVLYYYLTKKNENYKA

`Nc1cc(F)ccc1NC(=O)CCCCC(=O)Nc1ccc2c(c1)CC/C(=C\c1cc(C(F)(F)F)cc(C(F)(F)F)c1)C2=O` [Compound 13, (E)-N1-(2-amino-4-fluorophenyl)-N6-(6-(3,5-bis(trifluoromethyl)benzylidene)-5-oxo-5,6,7,8-tetrahydronaphthalen-2-yl)adipamide]: in experiment [1], the inhibition at 2 µM was under 50%, the inhibition at 10 µM was under 50% and the inhibition at 50 µM is under 50%. Further, in experiment [2], the inhibition at 2 µM was under 50%, the inhibition at 10 µM was under 50% and the inhibition at 50 µM was under 50%. In experiment [3], this compound registered an inhibition at 4 µM of 50 to 80%, an inhibition at 20 µM of 50 to 80% and an inhibition at 50 µM of 50 to 80%. In addition, in experiment [4], the inhibition at 2 µM was under 50%, the inhibition at 10 µM was under 50% and the inhibition at 50 µM was under 50%.
For the compound `COc1ccc(N2C(=O)CN(C3CCc4cc(/C=C/C(=O)NO)ccc43)C2=O)cc1` (stereo not drawn) [Compound 38, (E)-N-hydroxy-3-(1-(3-(4-methoxyphenyl)-2,4-dioxoimidazolidin-1-yl)-2,3-dihydro-1H-inden-5-yl)acrylamide], in experiment [1], the inhibition at 2 µM was over 80%, the inhibition at 10 µM is over 80% and the inhibition at 50 µM is over 80%. Besides, in experiment [2], the inhibition at 2 µM was over 80%, the inhibition at 10 µM is over 80% and the inhibition at 50 µM was over 80%. Besides, in experiment [3], the inhibition at 4 µM was under 50%, the inhibition at 20 µM was under 50% and the inhibition at 50 µM was under 50%. For the same compound, in experiment [4], the inhibition at 2 µM was over 80%, the inhibition at 10 µM was over 80% and the inhibition at 50 µM is over 80%.
For the compound `Nc1cc(F)ccc1NC(=O)/C=C/c1ccc2c(c1)CCC2NCCc1c[nH]c2ccccc12` (stereo not drawn) [Compound 57, (E)-3-(1-((2-(1H-indol-3-yl)ethyl)amino)-2,3-dihydro-1H-inden-5-yl)-N-(2-amino-4-fluorophenyl)acrylamide], in experiment [1], the inhibition at 2 µM is over 80%, the inhibition at 10 µM was over 80% and the inhibition at 50 µM is over 80%. Moreover, in experiment [2], the inhibition at 2 µM was 50 to 80%, the inhibition at 10 µM was over 80% and the inhibition at 50 µM was over 80%. In experiment [3], this compound showed an inhibition at 4 µM of under 50%, an inhibition at 20 µM of under 50% and an inhibition at 50 µM of under 50%. Besides, in experiment [4], the inhibition at 2 µM was under 50%, the inhibition at 10 µM fell in the range of 50 to 80% and the inhibition at 50 µM was over 80%.
With `Nc1cc(F)ccc1NC(=O)CCCCCCC(=O)Nc1ccc2c(c1)CC/C(=C\c1cc(C(F)(F)F)cc(C(F)(F)F)c1)C2=O` [Compound 5, (E)-N1-(2-amino-4-fluorophenyl)-N8-(6-(3,5-bis(trifluoromethyl)benzylidene)-5-oxo-5,6,7,8-tetrahydronaphthalen-2-yl)octanediamide], in experiment [1], the inhibition at 2 µM is under 50%, the inhibition at 10 µM was under 50% and the inhibition at 50 µM was under 50%. Further, in experiment [2], the inhibition at 2 µM is under 50%, the inhibition at 10 µM was under 50% and the inhibition at 50 µM is under 50%. In experiment [3], this compound showed an inhibition at 4 µM of 50 to 80%, an inhibition at 20 µM of 50 to 80% and an inhibition at 50 µM of 50 to 80%. In addition, in experiment [4], the inhibition at 2 µM is under 50%, the inhibition at 10 µM was under 50% and the inhibition at 50 µM is under 50%.
With `O=C(/C=C/c1ccc(COc2ccc3c(c2)CCC(Cc2cc(C(F)(F)F)cc(C(F)(F)F)c2)C3=O)cc1)NO` (stereo not drawn) [Compound 73, (E)-3-(4-(((6-(3,5-bis(trifluoromethyl)benzyl)-5-oxo-5,6,7,8-tetrahydronaphthalen-2-yl)oxy)methyl)phenyl)-N-hydroxyacrylamide], in experiment [1], the inhibition at 2 µM is under 50%, the inhibition at 10 µM is under 50% and the inhibition at 50 µM was under 50%. Further, in experiment [2], the inhibition at 2 µM is under 50%, the inhibition at 10 µM was under 50% and the inhibition at 50 µM was under 50%. Moreover, in experiment [3], the inhibition at 4 µM is under 50%, the inhibition at 20 µM is under 50% and the inhibition at 50 µM is under 50%. Also, in experiment [4], the inhibition at 2 µM is under 50%, the inhibition at 10 µM was under 50% and the inhibition at 50 µM was under 50%.
For `COc1ccc2c(c1)CCC2NC(=O)CCCCCCC(=O)Nc1ccc(F)cc1N` (stereo not drawn) [Compound 43, N1-(2-amino-4-fluorophenyl)-N8-(5-methoxy-2,3-dihydro-1H-inden-1-yl)octanediamide], in experiment [1], the inhibition at 2 µM was under 50%, the inhibition at 10 µM lay in the range of 50 to 80% and the inhibition at 50 µM was 50 to 80%. In experiment [2], the inhibition at 2 µM was under 50%, the inhibition at 10 µM is under 50% and the inhibition at 50 µM fell in the range of 50 to 80%. Besides, in experiment [3], the inhibition at 4 µM is under 50%, the inhibition at 20 µM was under 50% and the inhibition at 50 µM is under 50%. Moreover, in experiment [4], the inhibition at 2 µM was under 50%, the inhibition at 10 µM was under 50% and the inhibition at 50 µM is under 50%.
Take `COc1ccc2c(c1)CCCC2NC(=O)CCCCCCC(=O)NO` (stereo not drawn) [Compound 48, N^1-hydroxy-N^8-(6-methoxy-1,2,3,4-tetrahydronaphthalen-1-yl)octanediamide]: in experiment [1], the inhibition at 2 µM is over 80%, the inhibition at 10 µM was over 80% and the inhibition at 50 µM is over 80%. In experiment [2], the inhibition at 2 µM was over 80%, the inhibition at 10 µM was over 80% and the inhibition at 50 µM was over 80%. Also, in experiment [3], the inhibition at 4 µM is under 50%, the inhibition at 20 µM is under 50% and the inhibition at 50 µM is under 50%. In experiment [4], the inhibition at 2 µM was over 80%, the inhibition at 10 µM is over 80% and the inhibition at 50 µM is over 80%.
Turning to `COc1ccc2c(c1)CCCC2NC(=O)CCCCCCC(=O)Nc1ccc(F)cc1N` (stereo not drawn) [Compound 47, N1-(2-amino-4-fluorophenyl)-N8-(6-methoxy-1,2,3,4-tetrahydronaphthalen-1-yl)octanediamide], in experiment [1], the inhibition at 2 µM lay within 50 to 80%, the inhibition at 10 µM lay in the range of 50 to 80% and the inhibition at 50 µM was over 80%. In addition, in experiment [2], the inhibition at 2 µM was under 50%, the inhibition at 10 µM fell in the range of 50 to 80% and the inhibition at 50 µM lay within 50 to 80%. In experiment [3], this compound returned an inhibition at 4 µM of under 50%, an inhibition at 20 µM of under 50% and an inhibition at 50 µM of under 50%. Also, in experiment [4], the inhibition at 2 µM was under 50%, the inhibition at 10 µM was under 50% and the inhibition at 50 µM is under 50%.
As for `CCN(CC)c1ccc(C(=O)NC2CCc3cc(/C=C/C(=O)NCCCCCC(=O)Nc4ccc(F)cc4N)ccc32)cc1` (stereo not drawn) [Compound 29, (E)-N-(5-(3-((6-((2-amino-4-fluorophenyl)amino)-6-oxohexyl)amino)-3-oxoprop-1-en-1-yl)-2,3-dihydro-1H-inden-1-yl)-4-(diethylamino)benzamide], in experiment [1], the inhibition at 2 µM is under 50%, the inhibition at 10 µM is under 50% and the inhibition at 50 µM is under 50%. Also, in experiment [2], the inhibition at 2 µM was under 50%, the inhibition at 10 µM is under 50% and the inhibition at 50 µM fell in the range of 50 to 80%. In experiment [3], this compound registered an inhibition at 4 µM of under 50%, an inhibition at 20 µM of under 50% and an inhibition at 50 µM of under 50%. Besides, in experiment [4], the inhibition at 2 µM is under 50%, the inhibition at 10 µM is under 50% and the inhibition at 50 µM was under 50%.
As to `O=C(/C=C/c1ccc2c(c1)CCC2NCc1cc(C(F)(F)F)cc(C(F)(F)F)c1)NO` (stereo not drawn) [Compound 33, (E)-3-(1-((3,5-bis(trifluoromethyl)benzyl)amino)-2,3-dihydro-1H-inden-5-yl)-N-hydroxyacrylamide], in experiment [1], the inhibition at 2 µM fell in the range of 50 to 80%, the inhibition at 10 µM is over 80% and the inhibition at 50 µM is over 80%. In addition, in experiment [2], the inhibition at 2 µM was in the range of 50 to 80%, the inhibition at 10 µM was over 80% and the inhibition at 50 µM is over 80%. Moreover, in experiment [3], the inhibition at 4 µM is under 50%, the inhibition at 20 µM was under 50% and the inhibition at 50 µM is under 50%. In addition, in experiment [4], the inhibition at 2 µM was in the range of 50 to 80%, the inhibition at 10 µM was over 80% and the inhibition at 50 µM is over 80%.

Values taken from US12162820B2 (TAIWANJ PHARMACEUTICALS CO., LTD., priority 2019, dated 2024).
